Measured values: publication PMC3223730, “A nuclear magnetic resonance based approach to accurate functional annotation of putative enzymes in the methanogen Methanosarcina acetivorans” (BMC Genomics, 2011)
pKd: −log10 of the molar value.

Legend:
MA4265 = biological target: T1, MA4265 (Methanosarcina acetivorans, UniProt Q8TI91); assay: waterLOGSY 1H NMR; format: binding; conditions: 300 μM ligand, 30 μM protein; 50 mM sodium phosphate, 100 mM NaCl, pH 7.0; 5 or 25 °C
T1 construct: gene MA_4265; removal not described), expressed in E. coli at 25°C, Ni-NTA purified
T1 sequence (Q8TI91 1-342): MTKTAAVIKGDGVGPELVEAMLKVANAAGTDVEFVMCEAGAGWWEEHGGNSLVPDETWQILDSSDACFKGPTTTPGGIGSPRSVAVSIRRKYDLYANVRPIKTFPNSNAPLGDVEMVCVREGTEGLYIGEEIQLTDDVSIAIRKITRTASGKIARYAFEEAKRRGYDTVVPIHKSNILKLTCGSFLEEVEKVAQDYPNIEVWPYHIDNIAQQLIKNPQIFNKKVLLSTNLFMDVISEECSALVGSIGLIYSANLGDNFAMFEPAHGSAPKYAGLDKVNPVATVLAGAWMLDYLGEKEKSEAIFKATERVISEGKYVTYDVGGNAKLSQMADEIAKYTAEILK

MA3706 = biological target: T2, MA3706 (Methanosarcina acetivorans, UniProt Q8TJS1); assay: isothermal titration calorimetry; format: binding; conditions: read-out: dissociation constant
T2 construct: gene MA_3706; removal not described), expressed in E. coli BL21(DE3) Rosetta, Ni-NTA purified
T2 sequence (Q8TJS1 whole entry): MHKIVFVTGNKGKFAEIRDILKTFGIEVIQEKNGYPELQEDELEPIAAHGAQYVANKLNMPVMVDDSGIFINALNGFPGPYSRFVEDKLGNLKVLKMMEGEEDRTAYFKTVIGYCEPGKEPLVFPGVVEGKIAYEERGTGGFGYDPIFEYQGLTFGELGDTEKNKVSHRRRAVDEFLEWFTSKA

| pKd (MA3706) | Structure (SMILES) | waterLOGSY 1H NMR (MA4265) |
| --- | --- | --- |
|  | O=C(O)C[C@H](C(=O)O)[C@@H](O)C(=O)O [isocitrate] | Only isocitrate binds to MA4265 under the conditions used. |
| 5.11 | O=P(O)(O)OP(=O)(O)OP(=O)(O)OC[C@H]1O[C@@H](n2cnc3c(O)ncnc32)[C@H](O)[C@@H]1O [ITP] |  |
